Data reported in US20030040456A1, “Method and apparatus for cleaning article” (priority 2000, published 2003).

Tests used:
[1] = solubility of the organic solvents in water at 60° C.; assay type: physicochemical
Experimental: The organic solvent having high compatibility with oil is preferably a polar organic solvent as described above because excellent cleanability can be obtained. The polar organic solvent is particularly preferably an organic solvent having low compatibility with water, specifically solubility in water at 60° C. of 50 vol % or less, preferably 30 vol % or less. More specifically, the polar organic solvent is preferably selected from a propylene glycol alkyl ether-based compound represented by the following formula (I): [drawing 1]
Compatibility with water means ability of mixing with water in any ratio at 60° C.
(§1) The organic solvents and surfactants used in examples and comparative examples are given below.

[2] = solubility of the organic solvents in castor oil at 30° C.; assay type: physicochemical
Experimental: In the present invention, the organic solvent having high compatibility with oil is an organic solvent having high compatibility with oil adhered to an article to be cleaned, preferably an organic solvent which can be mixed with castor oil (Japanese Pharmacopoeia Act) as a typical example of the oil and standard oil in any ratio at 30° C. Preferred examples of the organic solvent having high compatibility with such oil include paraffin-based hydrocarbons such as dodecane, undecane and tridecane, naphthene-based hydrocarbons and polar organic solvents. Out of these, polar organic solvents are preferred. The polar organic solvents are preferably organic solvents having a dielectric constant of 8 or more, preferably 10 or more, such as glycol ether-based compounds, pyrrolidone-based compounds and imidazolidinone-based compounds. As the glycol ether-based compounds may be used ethylene glycol-based compounds but preferred are propylene glycol alkyl ether-based compounds.
as §1

CN1CCCC1=O [NMP, N-methylpyrrolidone]
solubility in water (in words) [1]: infinitely soluble | solubility in castor oil [2]: infinitely soluble

CCCCCCCCCCCCCC [TD, n-tetradecane]
solubility in water [1]: less than 1 vol % | solubility in castor oil [2]: infinitely soluble

dipropylene glycolmonomethyl ether [DPM]
solubility in water (in words) [1]: infinitely soluble | solubility in castor oil [2]: infinitely soluble

CCCOC(C)COC(C)CO (stereo not drawn) [DPP, dipropylene glycol monopropyl ether]
solubility in water [1]: 10 vol % | solubility in castor oil [2]: infinitely soluble

CCCCOCC(C)O (stereo not drawn) [PB, propylene glycol monobutyl ether]
solubility in water [1]: 6 vol % | solubility in castor oil [2]: infinitely soluble

CN1CCN(C)C1=O [DMI, 1,3-dimethyl-2-imidazolidinone]
solubility in water (in words) [1]: infinitely soluble | solubility in castor oil [2]: infinitely soluble
